Measured values published in ChEMBL document CHEMBL1201862, “PubChem BioAssay data set” (2004).
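Tested at 5 concentrations; 48 h exposure; 96-well plates; endpoints linearly interpolated, else capped at highest concentration. Here, GI50 denotes the concentration required for 50% inhibition of growth.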 The source made the active and inactive calls. Cut-off read from the data, not from the text of the source: active = GI50 up to about 1.1 µM and inactive = higher.

How the values were obtained:
Assay in all cases: NCI-60 cell line screen, 48 h
786-0 = system: 786-0
A498 = system: A498
A549 = system: A549
ACHN = system: ACHN
CAKI-1 = system: CAKI-1
CCRF-CEM = system: CCRF-CEM
COLO 205 = system: COLO 205
DLD-1 = system: DLD-1
DMS-114 = system: DMS-114
DMS-273 = system: DMS-273
EKVX = system: EKVX
HCC 2998 = system: HCC 2998
HCT-15 = system: HCT-15
HL-60 = system: HL-60
HOP-62 = system: HOP-62
HOP-92 = system: HOP-92
HT-29 = system: HT-29
IGROV-1 = system: IGROV-1
K562 = system: K562
KM-20L2 = system: KM-20L2
KM12 = system: KM12
LOX IMVI = system: LOX IMVI
LXFL 529 = system: LXFL 529
M14 = system: M14
M19-MEL = system: M19-MEL
MOLT-4 = system: MOLT-4
Malme-3M = system: Malme-3M
NCI-H226 = system: NCI-H226
NCI-H23 = system: NCI-H23
NCI-H460 = system: NCI-H460
NCI-H522 = system: NCI-H522
OVCAR-3 = system: OVCAR-3
OVCAR-4 = system: OVCAR-4
OVCAR-5 = system: OVCAR-5
OVCAR-8 = system: OVCAR-8
RPMI-8226 = system: RPMI-8226
RXF 393 = system: RXF 393
SF-268 = system: SF-268
SF-295 = system: SF-295
SF-539 = system: SF-539
SK-MEL-28 = system: SK-MEL-28
SK-MEL-2 = system: SK-MEL-2
SK-MEL-5 = system: SK-MEL-5
SN12C = system: SN12C
SNB-19 = system: SNB-19
SNB-75 = system: SNB-75
SNB-78 = system: SNB-78
SW-620 = system: SW-620
TK-10 = system: TK-10
UACC-257 = system: UACC-257
UACC-62 = system: UACC-62
UO-31 = system: UO-31
XF498 = system: XF498
HCT-116 = system: HCT-116
SK-OV-3 = system: SK-OV-3
SR = system: SR
U-251 = system: U-251

Measured: GI50

CCO/C=C1\N=C(C(Cl)c2ccccc2)OC1=O (stereo not drawn)
> 100 µM: HCT-15
inactive: 786-0 > 100 µM | A498 > 100 µM | A549 > 100 µM | ACHN > 100 µM | CAKI-1 > 100 µM | CCRF-CEM > 100 µM | COLO 205 > 100 µM | DLD-1 > 100 µM | DMS-114 61.5 µM | DMS-273 > 100 µM | EKVX > 100 µM | HCC 2998 > 100 µM | HL-60 > 100 µM | HOP-62 > 100 µM | HOP-92 > 100 µM | HT-29 > 100 µM | IGROV-1 > 100 µM | K562 > 100 µM | KM-20L2 > 100 µM | KM12 > 100 µM | LOX IMVI > 100 µM | LXFL 529 > 100 µM | M14 > 100 µM | M19-MEL > 100 µM | MOLT-4 > 100 µM | Malme-3M > 100 µM | NCI-H226 > 100 µM | NCI-H23 > 100 µM | NCI-H460 > 100 µM | NCI-H522 > 100 µM | OVCAR-3 > 100 µM | OVCAR-4 > 100 µM | OVCAR-5 > 100 µM | OVCAR-8 > 100 µM | RPMI-8226 > 100 µM | RXF 393 > 100 µM | SF-268 > 100 µM | SF-295 > 100 µM | SF-539 > 100 µM | SK-MEL-28 > 100 µM | SK-MEL-2 > 100 µM | SK-MEL-5 > 100 µM | SN12C > 100 µM | SNB-19 > 100 µM | SNB-75 > 100 µM | SNB-78 > 100 µM | SW-620 > 100 µM | TK-10 > 100 µM | UACC-257 > 100 µM | UACC-62 > 100 µM | UO-31 > 100 µM | XF498 > 100 µM

COC(=O)n1c(C[P+](c2ccccc2)(c2ccccc2)c2ccccc2)cc2ccccc21
13.3 µM: HCT-15
active: CCRF-CEM 0.931 µM | DLD-1 1.06 µM | DMS-114 1.09 µM | DMS-273 0.697 µM | EKVX 0.774 µM | HCT-116 1.11 µM | HL-60 0.869 µM | HOP-92 0.0318 µM | IGROV-1 0.664 µM | K562 0.438 µM | LOX IMVI 1.07 µM | LXFL 529 0.372 µM | M19-MEL 0.452 µM | NCI-H522 1 µM | OVCAR-3 1.01 µM | OVCAR-8 0.566 µM | RPMI-8226 0.352 µM | SK-MEL-2 0.661 µM | SK-MEL-5 0.414 µM | SK-OV-3 0.652 µM | UO-31 0.604 µM | XF498 0.746 µM
inactive: 786-0 2.41 µM | A498 7.26 µM | A549 2.22 µM | ACHN 3.87 µM | CAKI-1 2.06 µM | COLO 205 1.26 µM | HCC 2998 1.15 µM | HOP-62 1.73 µM | HT-29 1.75 µM | KM-20L2 1.94 µM | KM12 1.19 µM | M14 1.13 µM | MOLT-4 1.64 µM | Malme-3M 3.47 µM | NCI-H226 1.73 µM | NCI-H23 1.86 µM | NCI-H460 1.43 µM | OVCAR-4 5.92 µM | OVCAR-5 2.11 µM | RXF 393 3.43 µM | SF-268 2.93 µM | SF-295 2.29 µM | SF-539 3.17 µM | SK-MEL-28 4.16 µM | SN12C 2.26 µM | SNB-19 1.31 µM | SNB-75 3.94 µM | SNB-78 3.37 µM | SR 2.67 µM | SW-620 1.85 µM | TK-10 3.34 µM | U-251 2.81 µM | UACC-62 2.77 µM

N#Cc1cn(-c2c3ccccc3nc3ccccc23)c(=O)[nH]c1=O
5.96 µM: HCT-15
inactive: 786-0 3.29 µM | A549 4.56 µM | ACHN 4.19 µM | CAKI-1 5.75 µM | CCRF-CEM 7.29 µM | COLO 205 5.43 µM | DLD-1 15.5 µM | DMS-114 8 µM | EKVX 18.2 µM | HCT-116 3.95 µM | HL-60 10.6 µM | HOP-92 7.73 µM | HT-29 4.27 µM | IGROV-1 23.3 µM | K562 3.67 µM | KM-20L2 7.38 µM | KM12 7.16 µM | LOX IMVI 5.12 µM | LXFL 529 9.04 µM | M14 11.6 µM | M19-MEL 6.46 µM | MOLT-4 4.15 µM | Malme-3M 10.7 µM | NCI-H23 > 10 µM | NCI-H460 3.55 µM | NCI-H522 4.03 µM | OVCAR-3 8.02 µM | OVCAR-4 5.14 µM | OVCAR-5 13.8 µM | OVCAR-8 4.85 µM | RPMI-8226 14 µM | SF-268 4.74 µM | SF-295 5.83 µM | SF-539 2.51 µM | SK-MEL-28 16.8 µM | SK-MEL-2 10.8 µM | SK-OV-3 3.6 µM | SNB-19 22.2 µM | SNB-75 16.7 µM | SNB-78 13.5 µM | SR 3.31 µM | SW-620 5.01 µM | TK-10 21.5 µM | U-251 18 µM | UACC-257 4.86 µM | UACC-62 15.8 µM | UO-31 3.8 µM | XF498 11.6 µM
